Reference: US9067977B2, “Peptides derivatized with A-B-C-D- and their therapeutical use” (Novo Nordisk A/S, priority 2007, dated 2015)
Starred links: 1 amine or outer side, 2 acyl side, 3 side chain; linkers in the order of their positions; H or OH if unused. Non-standard residues stand in square brackets, D forms with d. Residues, ends and D or L forms follow the SMILES beside them. Groups on a side chain read outwards from the residue. *: point of attachment. X2 = O=C(O)CCCCCCCCCCCCCCCCCCC(=O)NCC1CCC(C(=O)*)CC1; βAsp = O=C(O)[C@H](CC(=O)[*:2])N[*:1]; AEEA = NCCOCCOCC(=O)O; Aib = CC(C)(N)C(=O)O

Each compound was assayed against human serum albumin (HSA) (Homo sapiens, UniProt P02768) (assay: Albumin binding affinity, competition scintillation proximity assay). Settings: not given.
Chain of human serum albumin (HSA) (P02768 25-609): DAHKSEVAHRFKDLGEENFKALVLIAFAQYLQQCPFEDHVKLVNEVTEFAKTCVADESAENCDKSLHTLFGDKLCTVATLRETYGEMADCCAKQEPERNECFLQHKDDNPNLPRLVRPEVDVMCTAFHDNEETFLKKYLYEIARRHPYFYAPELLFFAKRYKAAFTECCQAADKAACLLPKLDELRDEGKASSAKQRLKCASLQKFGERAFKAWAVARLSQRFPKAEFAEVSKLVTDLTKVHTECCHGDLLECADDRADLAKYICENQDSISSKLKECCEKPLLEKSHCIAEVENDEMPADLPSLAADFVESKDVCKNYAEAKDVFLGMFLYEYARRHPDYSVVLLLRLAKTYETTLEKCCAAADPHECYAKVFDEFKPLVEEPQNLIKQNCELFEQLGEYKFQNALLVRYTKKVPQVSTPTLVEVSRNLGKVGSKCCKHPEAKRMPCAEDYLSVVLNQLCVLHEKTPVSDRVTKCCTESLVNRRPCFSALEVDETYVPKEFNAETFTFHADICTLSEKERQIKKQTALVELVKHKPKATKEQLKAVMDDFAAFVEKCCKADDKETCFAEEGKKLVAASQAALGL

Structure (SMILES)	EC50 [nM]
CC[C@H](C)[C@H](NC(=O)[C@H](Cc1ccccc1)NC(=O)[C@H](CCC(=O)O)NC(=O)[C@H](CCCNC(=N)N)NC(=O)[C@H](C)NC(=O)[C@H](C)NC(=O)[C@H](CCC(N)=O)NC(=O)[C@H](CCC(=O)O)NC(=O)[C@H](CCC(=O)O)NC(=O)[C@H](CC(C)C)NC(=O)[C@H](Cc1ccc(O)cc1)NC(=O)[C@H](CO)NC(=O)[C@H](CO)NC(=O)[C@@H](NC(=O)[C@H](CC(=O)O)NC(=O)[C@H](CO)NC(=O)[C@@H](NC(=O)[C@H](Cc1ccccc1)NC(=O)[C@@H](NC(=O)CNC(=O)[C@H](CCC(=O)O)NC(=O)C(C)(C)NC(=O)[C@@H](N)Cc1c[nH]cn1)[C@@H](C)O)[C@@H](C)O)C(C)C)C(=O)N[C@@H](C)C(=O)N[C@@H](Cc1c[nH]c2ccccc12)C(=O)N[C@@H](CC(C)C)C(=O)N[C@H](C(=O)N[C@@H](CCCNC(=N)N)C(=O)NCC(=O)N[C@@H](CCCNC(=N)N)C(=O)NCC(=O)N[C@@H](CCCCNC(=O)COCCOCCNC(=O)COCCOCCNC(=O)C[C@H](NC(=O)C1CCC(CNC(=O)CCCCCCCCCCCCCCCCCCC(=O)O)CC1)C(=O)O)C(N)=O)C(C)C (stereo partly drawn) [Example 22, [Aib8,Glu22,Arg26,Arg34]GLP-1-(7-37)Lys[2-(2-[2-(2-[2-(2-((S)-3-[4-([19-Carboxynonadecanoylamino]methyl)cyclohexylcarbonylamino]-3-carboxypropionylamino)ethoxy)ethoxy]acetylamino)ethoxy]ethoxy)acetyl]amide] (H-H[Aib]EGTFTSDVSSYLEEQAAREFIAWLVRGRGK([AEEA-AEEA-βAsp-X2])-NH2; N-terminus assumed)	150 to 300
CC[C@H](C)[C@H](NC(=O)[C@H](Cc1ccccc1)NC(=O)[C@H](CCC(=O)O)NC(=O)[C@H](CCCNC(=N)N)NC(=O)[C@H](C)NC(=O)[C@H](C)NC(=O)[C@H](CCC(N)=O)NC(=O)[C@H](CCC(=O)O)NC(=O)[C@H](CCC(=O)O)NC(=O)[C@H](CC(C)C)NC(=O)[C@H](Cc1ccc(O)cc1)NC(=O)[C@H](CO)NC(=O)[C@H](CO)NC(=O)[C@@H](NC(=O)[C@H](CC(=O)O)NC(=O)[C@H](CO)NC(=O)[C@@H](NC(=O)[C@H](Cc1ccccc1)NC(=O)[C@@H](NC(=O)CNC(=O)[C@H](CCC(=O)O)NC(=O)[C@H](C)NC(=O)CCc1c[nH]cn1)[C@@H](C)O)[C@@H](C)O)C(C)C)C(=O)N[C@@H](C)C(=O)N[C@@H](Cc1c[nH]c2ccccc12)C(=O)N[C@@H](CC(C)C)C(=O)N[C@H](C(=O)N[C@@H](CCCNC(=N)N)C(=O)NCC(=O)N[C@@H](CCCNC(=N)N)C(=O)N[C@@H](CCCCNC(=O)COCCOCCNC(=O)COCCOCCNC(=O)CC[C@H](NC(=O)[C@H]1CC[C@H](CNC(=O)CCCCCCCCCCCCCCCCCCC(=O)O)CC1)C(=O)O)C(N)=O)C(C)C [Example 24, N-epsilon37-[2-(2-{2-[2-(2-{2-[(S)-4-Carboxy-4-({trans-4-[(19-carboxy-nonadecanoylamino)methyl]cyclohexanecarbonyl}amino)butyrylamino]ethoxy}ethoxy)acetylamino]ethoxy}ethoxy)acetyl][DesaminoHis7,Glu22,Arg26,Arg34,Lys37]GLP-1-(7-37)amide]	800 to 2000
CC[C@H](C)[C@H](NC(=O)[C@H](Cc1ccccc1)NC(=O)[C@H](CCC(=O)O)NC(=O)[C@H](CCCNC(=N)N)NC(=O)[C@H](C)NC(=O)[C@H](C)NC(=O)[C@H](CCC(N)=O)NC(=O)CNC(=O)[C@H](CCC(=O)O)NC(=O)[C@H](CC(C)C)NC(=O)[C@H](Cc1ccc(O)cc1)NC(=O)[C@H](CO)NC(=O)[C@H](CO)NC(=O)[C@@H](NC(=O)[C@H](CC(=O)O)NC(=O)[C@H](CO)NC(=O)[C@@H](NC(=O)[C@H](Cc1ccccc1)NC(=O)[C@@H](NC(=O)CNC(=O)[C@H](CCC(=O)O)NC(=O)[C@H](C)NC(=O)CCc1c[nH]cn1)[C@@H](C)O)[C@@H](C)O)C(C)C)C(=O)N[C@@H](C)C(=O)N[C@@H](Cc1c[nH]c2ccccc12)C(=O)N[C@@H](CC(C)C)C(=O)N[C@H](C(=O)N[C@@H](CCCNC(=N)N)C(=O)NCC(=O)N[C@@H](CCCNC(=N)N)C(=O)N[C@@H](CCCCNC(=O)COCCOCCNC(=O)COCCOCCNC(=O)CC[C@H](NC(=O)[C@H]1CC[C@H](CNC(=O)CCCCCCCCCCCCCCCCCCC(=O)O)CC1)C(=O)O)C(N)=O)C(C)C [Example 25]	> 2000

Further lines, results first:

EC50 [nM]	Structure (SMILES)
> 2000	CC[C@H](C)[C@H](NC(=O)[C@H](Cc1ccccc1)NC(=O)[C@H](CCC(=O)O)NC(=O)[C@H](CCCNC(=N)N)NC(=O)[C@H](C)NC(=O)[C@H](C)NC(=O)[C@H](CCC(N)=O)NC(=O)CNC(=O)[C@H](CCC(=O)O)NC(=O)[C@H](CC(C)C)NC(=O)[C@H](Cc1ccc(O)cc1)NC(=O)[C@H](CO)NC(=O)[C@H](CO)NC(=O)[C@@H](NC(=O)[C@H](CC(=O)O)NC(=O)[C@H](CO)NC(=O)[C@@H](NC(=O)[C@H](Cc1ccccc1)NC(=O)[C@@H](NC(=O)CNC(=O)[C@H](CCC(=O)O)NC(=O)[C@H](C)NC(=O)CCc1c[nH]cn1)[C@@H](C)O)[C@@H](C)O)C(C)C)C(=O)N[C@@H](C)C(=O)N[C@@H](Cc1c[nH]c2ccccc12)C(=O)N[C@@H](CC(C)C)C(=O)N[C@H](C(=O)N[C@@H](CCCNC(=N)N)C(=O)NCC(=O)N[C@@H](CCCNC(=N)N)C(=O)NCC(=O)N[C@@H](CCCCNC(=O)COCCOCCNC(=O)COCCOCCNC(=O)CC[C@H](NC(=O)C1CCN(C(=O)CCCCCCCCCCCCCCCCCCC(=O)O)CC1)C(=O)O)C(=O)O)C(C)C [Example 59, [DesaminoHis7,Arg26,34]-GLP-1 (7-37)-Lys(2-{2-[2-(2-{2-[2-((S)-4-Carboxy-4-{[1-(19-carboxynonadecanoyl)piperidine-4-carbonyl]amino}butyrylamino)ethoxy]ethoxy}acetylamino)ethoxy]ethoxy}acetyl) peptide]
1 to 100	CC[C@H](C)[C@H](NC(=O)[C@H](Cc1ccccc1)NC(=O)[C@H](CCC(=O)O)NC(=O)[C@H](CCCNC(=N)N)NC(=O)[C@H](C)NC(=O)[C@H](C)NC(=O)[C@H](CCC(N)=O)NC(=O)[C@H](CCC(=O)O)NC(=O)[C@H](CCC(=O)O)NC(=O)[C@H](CC(C)C)NC(=O)[C@H](Cc1ccc(O)cc1)NC(=O)[C@H](CO)NC(=O)[C@H](CO)NC(=O)[C@@H](NC(=O)[C@H](CC(=O)O)NC(=O)[C@H](CO)NC(=O)[C@@H](NC(=O)[C@H](Cc1ccccc1)NC(=O)[C@@H](NC(=O)CNC(=O)[C@H](CCC(=O)O)NC(=O)[C@H](C)NC(=O)CCc1c[nH]cn1)[C@@H](C)O)[C@@H](C)O)C(C)C)C(=O)N[C@@H](C)C(=O)N[C@@H](Cc1c[nH]c2ccccc12)C(=O)N[C@@H](CC(C)C)C(=O)N[C@H](C(=O)N[C@@H](CCCNC(=N)N)C(=O)NCC(=O)N[C@@H](CCCNC(=N)N)C(=O)N[C@@H](CCCCNC(=O)COCCOCCNC(=O)CC[C@H](NC(=O)CC[C@H](NC(=O)CCCCCCCCCCCNC(=O)CCCS(=O)(=O)NC(=O)CCCCCCCCCCCCCCCc1nnn(C(C)(C)C)n1)C(=O)O)C(=O)O)C(=O)O)C(C)C [Example 64, N-epsilon37-{2-[2-(2-{(S)-4-[(S)-4-(12-{4-[16-(2-tert-Butyl-2H-tetrazol-5-yl)-hexadecanoylsulfamoyl]butyrylamino}dodecanoylamino)-4-carboxybutyrylamino]-4-carboxybutyrylamino}ethoxy)ethoxy]acetyl}[DesaminoHis7,Glu22,Arg26,Arg34,Lys37] GLP-1 (7-37)]
800 to 2000	CC[C@H](C)[C@H](NC(=O)[C@H](Cc1ccccc1)NC(=O)[C@H](CCC(=O)O)NC(=O)[C@H](CCCNC(=N)N)NC(=O)[C@H](C)NC(=O)[C@H](C)NC(=O)[C@H](CCC(N)=O)NC(=O)[C@H](CCC(=O)O)NC(=O)[C@H](CCC(=O)O)NC(=O)[C@H](CC(C)C)NC(=O)[C@H](Cc1ccc(O)cc1)NC(=O)[C@H](CO)NC(=O)[C@H](CO)NC(=O)[C@@H](NC(=O)[C@H](CC(=O)O)NC(=O)[C@H](CO)NC(=O)[C@@H](NC(=O)[C@H](Cc1ccccc1)NC(=O)[C@@H](NC(=O)CNC(=O)[C@H](CCC(=O)O)NC(=O)C(C)(C)NC(=O)[C@@H](N)Cc1c[nH]cn1)[C@@H](C)O)[C@@H](C)O)C(C)C)C(=O)N[C@@H](C)C(=O)N[C@@H](Cc1c[nH]c2ccccc12)C(=O)N[C@@H](CC(C)C)C(=O)N[C@H](C(=O)N[C@@H](CCCNC(=N)N)C(=O)NCC(=O)N[C@@H](CCCNC(=N)N)C(=O)N[C@@H](CCCCNC(=O)COCCOCCNC(=O)CC[C@H](NC(=O)CC[C@H](NC(=O)CCCCCCCCCCCNC(=O)CCCS(=O)(=O)NC(=O)CCCCCCCCCCCCCCCc1nnn[nH]1)C(=O)O)C(=O)O)C(N)=O)C(C)C [Example 48, N-epsilon37-[2-(2-{2-[(S)-4-Carboxy-4-((S)-4-carboxy-4-{12-[4-(16-(1H-tetrazol-5-yl)hexadecanoylsulfamoyl)butyrylamino]dodecanoylamino}butyrylamino)butyrylamino]ethoxy}ethoxy)acetyl][Aib8,Glu22,Arg26,Arg34,Lys37]GLP-1-(7-37)amide]

Same assay, conditions: human, biotinylated human serum albumin on streptavidin-SPA beads, pH 7.4

EC50 at 20 h [nM]	Structure (SMILES)
1 to 100	CC[C@H](C)[C@H](NC(=O)[C@H](Cc1ccccc1)NC(=O)[C@H](CCC(=O)O)NC(=O)[C@H](CCCCNC(=O)COCCOCCNC(=O)CC[C@H](NC(=O)CC[C@H](NC(=O)CCCCCNC(=O)CCCS(=O)(=O)NC(=O)CCCCCCCCCCCCCCCc1nnn[nH]1)C(=O)O)C(=O)O)NC(=O)[C@H](C)NC(=O)[C@H](C)NC(=O)[C@H](CCC(N)=O)NC(=O)CNC(=O)[C@H](CCC(=O)O)NC(=O)[C@H](CC(C)C)NC(=O)[C@H](Cc1ccc(O)cc1)NC(=O)[C@H](CO)NC(=O)[C@H](CO)NC(=O)[C@@H](NC(=O)[C@H](CC(=O)O)NC(=O)[C@H](CO)NC(=O)[C@@H](NC(=O)[C@H](Cc1ccccc1)NC(=O)[C@@H](NC(=O)CNC(=O)[C@H](CCC(=O)O)NC(=O)C(C)(C)NC(=O)[C@@H](N)Cc1c[nH]cn1)[C@@H](C)O)[C@@H](C)O)C(C)C)C(=O)N[C@@H](C)C(=O)N[C@@H](Cc1c[nH]c2ccccc12)C(=O)N[C@@H](CC(C)C)C(=O)N[C@H](C(=O)N[C@@H](CCCNC(=N)N)C(=O)O)C(C)C [Example 38, N-epsilon26-[2-(2-{2-[(S)-4-Carboxy-4-((S)-4-carboxy-4-{6-[4-(16-(1H-tetrazol-5-yl)hexadecanoylsulfamoyl)butyrylamino]hexanoylamino}butyrylamino)butyrylamino]ethoxy}ethoxy)acetyl][Aib8,Arg34]GLP-1-(7-34)]
